≈ marks a conversion by molar mass, not a printed value. Where two headings read alike, the source gives them in different places. Numbered stars: 1 amine (or outer) side, 2 acyl side, 3 side chain; on linkers, the order of the positions; unused ones are H or OH. Square brackets hold non-standard residues; d marks the D form. Peptide text beside a SMILES is read from it. X1 = O=C(CN(CC(c1ccccc1)c1ccccc1)[*:1])[*:2]; Gly(N(CH2)3NH2) = NCCCNCC(=O)O; NhArg = N=C(N)NCCCCNCC(=O)O; N(iPr)Gly = CC(C)NCC(=O)O; Nphe = O=C(O)CNCc1ccccc1; Orn = NCCC[C@H](N)C(=O)O; Nleu = CC(C)CNCC(=O)O; Nlys = NCCCCNCC(=O)O
Columns and labels:
Assay type in all cases: cell-based
[1] = system: Bacillus subtilis ATCC 6633
Protocol: (§1) Antimicrobial activity was tested against the gram-negative strain Escherichia coli ATCC 25922, and […] strains Staphylococcus aureus ATCC 25923, and Bacillus subtilis ATCC 6633, according to the guidelines given in the document […]-A7 of the CLSI (Clinical and Laboratory Standards Institute; Clinical and Laboratory Standards Institute. Methods for Dilution Antimicrobial Susceptibility Tests for Bacteria That Grow Aerobically-Seventh Edition: Approved Standard CLSI document […]-A7. CLSI, Wayne, USA, 2006). This reference is incorporated herein in its entirety. Hemolytic activity was tested against fresh human erythrocytes.

[2] = system: Escherichia coli ATCC 25922
Protocol: as §1

[3] = system: Staphylococcus aureus ATCC 25923
Protocol: as §1

[4] = system: fresh human erythrocytes; experiment: Hemolytic activity
Protocol: Typically, toxicity is evaluated by hemolytic concentration50 (HC50), which measures the concentration of antimicrobial agents at which 50% of the erythrocytes in the culture are lysed. Significant hemolysis, as evaluated by HC50, was detectable only for peptide gramicidin S (40 μg/mL). […] In order to test hemolytic activity of peptoid oligomers further, more stringent parameters were used. Instead of HC50, hemolytic concentration10 (HC10) was used to evaluate hemolytic activity of peptoids used in this study. HC10 represents the concentration of antimicrobial agents where 10% of erythrocytes are lysed. HC10 values were detectable for only four peptoid oligomers. […] Antimicrobial activity was tested against the gram-negative strain Escherichia coli ATCC 25922, and […] strains Staphylococcus aureus ATCC 25923, and Bacillus subtilis ATCC 6633, according to the guidelines given in the document […]-A7 of the CLSI (Clinical and Laboratory Standards Institute; Clinical and Laboratory Standards Institute. Methods for Dilution Antimicrobial Susceptibility Tests for Bacteria That Grow Aerobically-Seventh Edition: Approved Standard CLSI document […]-A7. CLSI, Wayne, USA, 2006). This reference is incorporated herein in its entirety. Hemolytic activity was tested against fresh human erythrocytes.

Structure (SMILES) | MIC B. sub ([1]; ATCC 6633) [µg/mL] | MIC E. coli ([2]; ATCC 25922) [µg/mL] | MIC S. aureus ([3]; ATCC 25923) [µg/mL] | HC10 (concentration where 10% hemolysis is observed) ([4]; red cells of human) [µg/mL] | HC50 (concentration where 50% hemolysis is observed) ([4]; red cells of human) [µg/mL] | non-hemolytic up to (concentration) [4] [µg/mL] | HC50 (concentration where 50% hemolysis is observed) [4] [µg/mL] | MIC B. sub ([1]; B. subtilis ATCC 6633) [µg/mL] | MIC E. coli ([2]; E. coli ATCC 25922) [µg/mL] | MIC S. aureus ([3]; S. aureus ATCC 25923) [µg/mL] | HC10 (concentration where 10% hemolysis is observed) ([4]; fresh human erythrocytes) [µg/mL] | HC50 (concentration where 50% hemolysis is observed) ([4]; fresh human erythrocytes) [µg/mL]
CC(=O)N(CCCCNC(=N)N)CC(=O)N(CC(=O)N(CCCCNC(=N)N)CC(=O)N(CC(=O)N(CCCCNC(=N)N)CC(=O)N(CC(=O)N(CCCCNC(=N)N)CC(=O)N(CC(=O)N(CCCCNC(=N)N)CC(=O)N(CC(N)=O)CC(c1ccccc1)c1ccccc1)CC(c1ccccc1)c1ccccc1)CC(c1ccccc1)c1ccccc1)CC(c1ccccc1)c1ccccc1)CC(c1ccccc1)c1ccccc1 [Compound 15, Ac(NgbNdp)5] | 62.5 (≈ 29.8 µM) | 31.3 (≈ 14.9 µM) | 62.5 (≈ 29.8 µM) | >250 | >250 | – | – | – | – | – | – | –
NCCCN1CC(=O)N(Cc2ccccc2)CC(=O)N(CCCN)CC(=O)N(Cc2ccccc2)CC(=O)N(CCCN)CC(=O)N(Cc2ccccc2)CC(=O)N(CCCN)CC(=O)N(Cc2ccccc2)CC1=O [Compound 24, C(NapNpm)4] (cyclo([Nphe][Gly(N(CH2)3NH2)][Nphe][Gly(N(CH2)3NH2)][Nphe][Gly(N(CH2)3NH2)][Nphe][Gly(N(CH2)3NH2)])) | 2 (≈ 1.91 µM) | 31.3 (≈ 29.9 µM) | 31.3 (≈ 29.9 µM) | >250 | >250 | ≥ 250 | – | – | – | – | – | –
N=C(N)NCCCCN1CC(=O)N(CC(c2ccccc2)c2ccccc2)CC(=O)N(CC(c2ccccc2)c2ccccc2)CC(=O)N(CC(c2ccccc2)c2ccccc2)CC(=O)N(CCCCNC(=N)N)CC(=O)N(CC(c2ccccc2)c2ccccc2)CC1=O [Compound 32, C(NdpNgb)2Ndp2] | >500 | >500 | >500 | >250 | >250 | – | – | – | – | – | – | –
CC(C)C[C@@H]1NC(=O)[C@H](CCCN)NC(=O)[C@H](C(C)C)NC(=O)[C@@H]2CCCN2C(=O)[C@@H](Cc2ccccc2)NC(=O)[C@H](CC(C)C)NC(=O)[C@H](CCCN)NC(=O)[C@H](C(C)C)NC(=O)[C@@H]2CCCN2C(=O)[C@@H](Cc2ccccc2)NC1=O [Compound 17, Gramicidin S, reference compound] (cyclo(V[Orn]L[dF]PV[Orn]L[dF]P)) | 2 (≈ 1.75 µM) | 15.6 (≈ 13.7 µM) | 15.6 (≈ 13.7 µM) | >15.6 | – | – | 40 | – | – | – | – | –
CC(=O)N(CCCCN)CC(=O)N(CC(=O)N(CCCCN)CC(=O)N(CC(=O)N(CCCCN)CC(=O)N(CC(N)=O)Cc1ccccc1)Cc1ccccc1)Cc1ccccc1 [Compound 14, Ac(NabNpm)3] (Ac-[Nlys][Nphe][Nlys][Nphe][Nlys][Nphe]-NH2) | >500 | >500 | >500 | >250 | >250 | – | – | – | – | – | – | –
CC(C)CN1CC(=O)N(Cc2ccccc2)CC(=O)N2CCC[C@H]2C(=O)N(C(C)C)CC(=O)N(CCCN)CC(=O)N(CC(C)C)CC(=O)N(Cc2ccccc2)CC(=O)N2CCC[C@H]2C(=O)N(C(C)C)CC(=O)N(CCCN)CC1=O [Compound 27, C(NipNapNibNpmPro)2] (cyclo([Nleu][Nphe]P[N(iPr)Gly][Gly(N(CH2)3NH2)][Nleu][Nphe]P[N(iPr)Gly][Gly(N(CH2)3NH2)])) | – | – | – | – | – | – | – | >500 | >500 | >500 | >250 | >250
CC(=O)N(CC(=O)N(CC(=O)N(CCCCNC(=N)N)CC(=O)N(CC(=O)N1CCC[C@H]1C(=O)N(CC(=O)N(CC(=O)N(CCCCNC(=N)N)CC(=O)N(CC(=O)N1CCC[C@H]1C(N)=O)C(C)C)CC(C)C)CC(c1ccccc1)c1ccccc1)C(C)C)CC(C)C)CC(c1ccccc1)c1ccccc1 [Compound 12, Ac(NdpNibNgbNipPro)2] (Ac-[X1][Nleu][NhArg][N(iPr)Gly]P[X1][Nleu][NhArg][N(iPr)Gly]P-NH2) | 500 (≈ 335 µM) | 250 (≈ 167 µM) | 500 (≈ 335 µM) | >250 | >250 | – | – | – | – | – | – | –
